Assay results taken from publication PMC8286840, “Identifying SARS-CoV-2 antiviral compounds by screening for small molecule inhibitors of Nsp3 papain-like protease” (Biochemical Journal, 2021).
Where a name gives a salt, the structure may show the parent alone. Read-outs that look alike come from different tables or passages of the source.

Key:
[1] = target: T1, SARS-CoV-2 PLpro (nsp3 1564–1878) (Severe acute respiratory syndrome coronavirus 2, UniProt P0DTD1); assay: biochemical; set-up: FRET-quenched peptide (Pro3) cleavage by PLpro, 10 min pre-incubation, slope over 20 min, normalised to no-compound control; settings: read-out: % of control remaining
[2] = target: T1, SARS-CoV-2 PLpro (nsp3 1564–1878); assay: biochemical; set-up: FRET-quenched peptide (Pro3) cleavage by PLpro, 10 min pre-incubation, slope over 20 min, normalised to no-compound control; settings: read-out: % of control remaining; remark: listed apart in the source

Cc1cc(O[C@@H](CCC(F)(F)F)c2ccc(C(=O)NCCC(=O)O)cc2)cc(C)c1-c1ccc(C(C)(C)C)cc1 [Adomeglivant]
remaining activity at 1.25 µM ([1]; Well no.=7043, low concentration screen): 99.3% | remaining activity at 3.75 µM ([2]; Well no.=7043, high concentration screen): 98.4%

CC(NC(C)(C)C)C(=O)c1cccc(Cl)c1 (stereo not shown) [Bupropion hydrochloride]
remaining activity at 1.25 µM ([1]; Well no.=37, low concentration screen): 101% | remaining activity at 3.75 µM ([2]; Well no.=37, high concentration screen): 100%

NC[C@@H]1O[C@H](C23CC4CC(CC(C4)C2)C3)Cc2c1ccc(O)c2O [A-77636 hydrochloride]
remaining activity at 1.25 µM ([1]; Well no.=212, low concentration screen): 102% | remaining activity at 3.75 µM ([2]; Well no.=212, high concentration screen): 99.3%

NCc1cc(O)no1 [Muscimol hydrobromide]
remaining activity at 1.25 µM ([1]; Well no.=556, low concentration screen): 95.9% | remaining activity at 3.75 µM ([2]; Well no.=556, high concentration screen): 94.1%

CC(C)=CCC[C@](C)(O[C@@H]1O[C@H](CO[C@@H]2O[C@@H](CO)[C@H](O)[C@H]2O)[C@@H](O)[C@H](O)[C@H]1O)[C@H]1CC[C@]2(C)[C@@H]1[C@H](O)C[C@@H]1[C@@]3(C)CC[C@H](O[C@@H]4O[C@H](CO)[C@@H](O)[C@H](O)[C@H]4O[C@@H]4O[C@H](CO)[C@@H](O)[C@H](O)[C@H]4O)C(C)(C)[C@@H]3CC[C@]12C [Ginsenoside Rc]
remaining activity at 1.25 µM ([1]; Well no.=6436, low concentration screen): 93.3% | remaining activity at 3.75 µM ([2]; Well no.=6436, high concentration screen): 92.6%

N=C(N)N1CCc2ccccc2C1 [Debrisoquin sulfate]
remaining activity at 1.25 µM ([1]; Well no.=397, low concentration screen): 103% | remaining activity at 3.75 µM ([2]; Well no.=397, high concentration screen): 104%

C[C@H]1C/C=C/[C@H]2[C@@H]3O[C@]3(C)[C@@H](C)[C@H]3[C@H](Cc4ccccc4)NC(=O)[C@]32OC(=O)O/C=C/[C@@](C)(O)C1=O [Cytochalasin E]
remaining activity at 1.25 µM ([1]; Well no.=3627, low concentration screen): 101% | remaining activity at 3.75 µM ([2]; Well no.=3627, high concentration screen): 103%

CCCN(CCC)S(=O)(=O)c1ccc(C(=O)O)cc1 [Probenecid (Benemid)]
remaining activity at 1.25 µM ([1]; Well no.=4972, low concentration screen): 95.9% | remaining activity at 3.75 µM ([2]; Well no.=4972, high concentration screen): 91.7%

CN(C)C(=O)C(CCN1CCC(O)(c2ccc(Cl)cc2)CC1)(c1ccccc1)c1ccccc1 [Loperamide.HCl]
remaining activity at 1.25 µM ([1]; Well no.=1597, low concentration screen): 104% | remaining activity at 3.75 µM ([2]; Well no.=1597, high concentration screen): 104%

CN[C@@H](C)C(=O)N[C@H](C(=O)N1CCC[C@H]1c1nc(C(=O)c2ccc(F)cc2)cs1)C1CCCCC1 [LCL161]
remaining activity at 1.25 µM ([1]; Well no.=6594, low concentration screen): 91.2% | remaining activity at 3.75 µM ([2]; Well no.=6594, high concentration screen): 94.5%

CO[C@H](C(=O)[C@@H](O)[C@@H](C)O)[C@@H]1Cc2cc3cc(O[C@H]4C[C@@H](O[C@@H]5C[C@@H](O)[C@H](O)[C@@H](C)O5)[C@H](O)[C@@H](C)O4)c(C)c(O)c3c(O)c2C(=O)[C@H]1O[C@H]1C[C@@H](O[C@@H]2C[C@@H](O)[C@@H](O[C@@H]3C[C@](C)(O)[C@H](O)[C@@H](C)O3)[C@@H](C)O2)[C@H](O)[C@@H](C)O1 [Mithramycin A]
remaining activity at 1.25 µM ([1]; Well no.=3411, low concentration screen): 96.9% | remaining activity at 3.75 µM ([2]; Well no.=3411, high concentration screen): 101%

O=c1cc(C(Cl)(Cl)Cl)oc2ccc(Cl)cc12 [ST034307]
remaining activity at 1.25 µM ([1]; Well no.=7185, low concentration screen): 103% | remaining activity at 3.75 µM ([2]; Well no.=7185, high concentration screen): 95.4%

CCCCCCCCCCCCCCCCCCCCCCCC(=O)O [Tetracosanoic acid]
remaining activity at 1.25 µM ([1]; Well no.=4502, low concentration screen): 92.1% | remaining activity at 3.75 µM ([2]; Well no.=4502, high concentration screen): 94.2%

CCCSc1nc(N[C@@H]2C[C@H]2c2ccc(F)c(F)c2)c2nnn([C@@H]3C[C@H](OCCO)[C@@H](O)[C@H]3O)c2n1 [Ticagrelor]
remaining activity at 1.25 µM ([1]; Well no.=4738, low concentration screen): 105% | remaining activity at 1.25 µM ([1]; Well no.=6329, low concentration screen): 101% | remaining activity at 3.75 µM ([2]; Well no.=4738, high concentration screen): 108% | remaining activity at 3.75 µM ([2]; Well no.=6329, high concentration screen): 102%

CCCCCCCCCCCCCCCC(=O)O[C@@H]1[C@@H](O)[C@@H](O)[C@@H]([C@H](NC(=O)[C@@H]2C[C@@H](CCC)CN2C)[C@H](C)Cl)O[C@@H]1SC [Clindamycin palmitate.HCl]
remaining activity at 1.25 µM ([1]; Well no.=1864, low concentration screen): 100% | remaining activity at 3.75 µM ([2]; Well no.=1864, high concentration screen): 102%

CCCCCCCCC(=O)NCc1ccc(O)c(OC)c1 [N-Vanillylnonanamide]
remaining activity at 1.25 µM [1]: 96.7% | remaining activity at 3.75 µM [2]: 96.6%

CCCCC(CC)COC(=O)CC(C(=O)OCC(CC)CCCC)S(=O)(=O)O (stereo not shown) [Docusate Sodium]
remaining activity at 1.25 µM ([1]; Well no.=8348, low concentration screen): 94.3% | remaining activity at 3.75 µM ([2]; Well no.=8348, high concentration screen): 92.6%

Cc1cc([C@@H]2CCCN2C)on1 [ABT-418]
remaining activity at 1.25 µM ([1]; Well no.=307, low concentration screen): 97.8% | remaining activity at 3.75 µM ([2]; Well no.=307, high concentration screen): 99.2%

C[C@@H](N)C(=O)O [D-Alanine]
remaining activity at 1.25 µM ([1]; Well no.=7693, low concentration screen): 107% | remaining activity at 3.75 µM ([2]; Well no.=7693, high concentration screen): 105%

O=C(NO)c1cccc(C(=O)NCCc2ccccc2)c1 [BRD73954]
remaining activity at 1.25 µM ([1]; Well no.=5588, low concentration screen): 99.7% | remaining activity at 3.75 µM ([2]; Well no.=5588, high concentration screen): 92.7%

CC1=CC(=O)c2ccccc2C1=O [Menadione]
remaining activity at 1.25 µM ([1]; Well no.=3372, low concentration screen): 98.5% | remaining activity at 1.25 µM ([1]; Well no.=6251, low concentration screen): 99.2% | remaining activity at 3.75 µM ([2]; Well no.=3372, high concentration screen): 96.5% | remaining activity at 3.75 µM ([2]; Well no.=6251, high concentration screen): 101%

C[n+]1cc2c3c(ccc2c2ccc4cc5c(cc4c21)OCO5)OCO3 [Sanguinarine (chloride)]
remaining activity at 1.25 µM ([1]; Well no.=6636, low concentration screen): 99.4% | remaining activity at 3.75 µM ([2]; Well no.=6636, high concentration screen): 98.9%

CC(C)(Oc1ccc(CCNC(=O)c2ccc(Cl)cc2)cc1)C(=O)O [Bezafibrate]
remaining activity at 1.25 µM ([1]; Well no.=1660, low concentration screen): 98.3% | remaining activity at 3.75 µM ([2]; Well no.=1660, high concentration screen): 97.5%

NC(Cc1cc(O)c(O)cc1O)C(=O)O (racemic) [6-Hydroxy-DL-DOPA]
remaining activity at 1.25 µM ([1]; Well no.=752, low concentration screen): 88.3% | remaining activity at 3.75 µM ([2]; Well no.=752, high concentration screen): 89.4%

C#C[C@]1(O)CC[C@H]2[C@@H]3CCC4=CC(=O)CC[C@@H]4[C@H]3CC[C@@]21C [Norethindrone]
remaining activity at 1.25 µM ([1]; Well no.=2013, low concentration screen): 96.6% | remaining activity at 3.75 µM ([2]; Well no.=2013, high concentration screen): 96.6%

CC(C)C[C@H](NP(=O)(O)O[C@@H]1O[C@@H](C)[C@H](O)[C@@H](O)[C@H]1O)C(=O)N[C@@H](Cc1c[nH]c2ccccc12)C(=O)O [Phosphoramidon disodium]
remaining activity at 1.25 µM ([1]; Well no.=1398, low concentration screen): 99.4% | remaining activity at 3.75 µM ([2]; Well no.=1398, high concentration screen): 100%

S=C(NC1CCCCC1)N1CCC(c2cnc[nH]2)CC1 [Thioperamide maleate]
remaining activity at 1.25 µM ([1]; Well no.=1234, low concentration screen): 102% | remaining activity at 3.75 µM ([2]; Well no.=1234, high concentration screen): 104%

CC(C)(C)NCC(O)COc1cccc2[nH]c(=O)[nH]c12 (racemic)
remaining activity at 1.25 µM ([1]; Well no.=629, low concentration screen): 101% | remaining activity at 3.75 µM ([2]; Well no.=629, high concentration screen): 101%

O=C1Cc2cc(CCN3CCN(c4nsc5ccccc45)CC3)c(Cl)cc2N1 [Ziprasidone HCl]
remaining activity at 1.25 µM ([1]; Well no.=4859, low concentration screen): 92.1% | remaining activity at 3.75 µM ([2]; Well no.=4859, high concentration screen): 93.7%

O=C1CCC(N2C(=O)c3ccccc3C2=O)C(=O)N1 (racemic)
remaining activity at 1.25 µM ([1]; Well no.=1282, low concentration screen): 107% | remaining activity at 3.75 µM ([2]; Well no.=1282, high concentration screen): 105%

COc1c2ccoc2cc2oc(C)cc(=O)c12 [Visnagin]
remaining activity at 1.25 µM ([1]; Well no.=3689, low concentration screen): 99.6% | remaining activity at 3.75 µM ([2]; Well no.=3689, high concentration screen): 101%

CC(C)(C#N)c1cc(Cn2cncn2)cc(C(C)(C)C#N)c1 [Anastrozole]
remaining activity at 1.25 µM ([1]; Well no.=1858, low concentration screen): 101% | remaining activity at 3.75 µM ([2]; Well no.=1858, high concentration screen): 102%

Cn1nc(C(F)(F)F)cc1-c1cnc(N2CCc3cc(S(=O)(=O)Nc4c(F)cc(Cl)cc4F)cc(N4CCCC4=O)c32)nc1 [MGAT2-IN-1]
remaining activity at 1.25 µM ([1]; Well no.=8422, low concentration screen): 94.8% | remaining activity at 3.75 µM ([2]; Well no.=8422, high concentration screen): 93.1%
